# Laboratory results as given in US20060134767A1, “Mitotic kinesin binding site” (priority 2002, published 2006).
# Target: T1, KSP(367H) (Homo sapiens, UniProt P52732)
# T1 construct: Add 18.75 μl of 4 μM stock nucleotide-free KSP(367H)
# T1 sequence (P52732 1-367 limits assumed): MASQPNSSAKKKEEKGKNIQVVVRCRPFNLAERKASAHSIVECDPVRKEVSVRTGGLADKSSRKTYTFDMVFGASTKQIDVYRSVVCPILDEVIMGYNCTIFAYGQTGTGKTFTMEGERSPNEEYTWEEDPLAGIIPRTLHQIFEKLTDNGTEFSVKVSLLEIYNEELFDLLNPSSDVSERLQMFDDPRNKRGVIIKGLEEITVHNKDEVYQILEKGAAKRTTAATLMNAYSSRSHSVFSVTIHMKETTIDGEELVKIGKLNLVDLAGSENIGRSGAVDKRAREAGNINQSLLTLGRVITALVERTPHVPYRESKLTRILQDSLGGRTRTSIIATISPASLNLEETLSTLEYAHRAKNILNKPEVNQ
# Assay: Fluorescence of Trp127 of KSP -/+ inhibitors (in vitro binding assay for the novel KSP binding site)
# Procedure: The binding of a ligand to the novel binding site of the instant invention and the formation of the novel binding pocket as a result can als6 be indirectly assessed by spectroscopically determining the shift in the fluorescence of the amino acid 127 tryptophan residue. Thus it has been discovered that the fluorescent emission of Trp127 is modulated when KSP is treated with one of the inhibitors described above in the presence of a nucleotide or nucleotides.
# A further embodiment of the instant invention is an in vitro assay for the determination of binding of a test compound to the novel KSP binding site described herein. The assay comprises the steps of: • 1. contacting KSP with the test compound and a nucleotide and measuring the fluorescence of the mixture at the peak emission wavelength for Trp127 in KSP; • 2. contacting KSP with a nucleotide and measuring the fluorescence of the mixture at the peak emission wavelength for Trp127 in KSP; and • 3. comparing the fluorescence of the mixture of KSP, the test compound and the nucleotide with the fluorescence of the mixture of KSP with the nucleotide alone.
# In another embodiment of the in vitro fluorescence assay the nucleotide is selected from ADP and AMPPNP (a non-hydrolysable analog of ATP, adenosine 5′-(β,γ-imido)triphosphate tetralithium salt hydrate).
# • 2× kinesin buffer: 160 mM K-Hepes, 2 mM MgCl2, 2 mM EGTA, 2 mM DTT (added fresh daily), and 100 mM KCl, pH 6.8. • Nucleotide: nucleotide is resuspended to 200 mM in 50 mM K-Hepes (pH 6.8). • Nucleotide is diluted 1:1 with 200 MM MgCl2 to a stock concentration of 100 mM of 1:1 nucleotide:MgCl2. • Cuvette volume=300 μl Methods • 1) Add 281 μl of 1× kinesin buffer, ±nucleotide, and H2O (Nucleotide=none, 1 mM AMPPNP, or 1 mM ADP (final concentration)). • 2) Add 18.75 μl of 4 μM stock nucleotide-free KSP(367H). • 3) Add compound sequentially from DMSO stock (with all the volume of all additions ≦0.6 μl). • 4) Measure fluorescence after each addition (starting with buffer only). • 5) Example titration for Compound 8-1 with KSP(367H)ADP: 281 μl of 1× kinesin buffer+1 mM ADP: • add 250 nM KSP (18.75 μl of 4 uM nucleotide-free stock) • add 1 nM Compound 8-1 (1 nMf) (addition of 0.3 μl of 0.001 mM stock) • add 2 nM Compound 8-1 (3 nMf) (addition of 0.6 μl of 0.001 mM stock) • add 4 nM Compound 8-1 (7 nMf) (addition of 0.12 μl of 0.01 mM stock) • add 3 nM Compound 8-1 (10 nMf) (addition of 0.09 μl of 0.01 mM stock) • add 20 nM Compound 8-1 (30 nMf) (addition of 0.6 μl of 0.01 mM stock) • add 40 nM Compound 8-1 (70 nMf) (addition of 0.12 μl of 0.1 mM stock) • add 30 nM Compound 8-1 (100 nMf) (addition of 0.09 μl of 0.1 mM stock) • add 200 nM Compound 8-1 (300 nMf) (addition of 0.6 μl of 0.1 mM stock) • add 400 nM Compound 8-1 (700 nMf) (addition of 0.12 μl of 1 mM stock) • add 300 nM Compound 8-1 (1000 nMf) (addition of 0.09 μl of 1 mM stock) • add 2000 nM Compound 8-1 (3000 nMf) (addition of 0.6 μl of 1 mM stock). • 6) After each addition, measure steady-state fluorescence under the following conditions: • λex=[…], λem=342-346 nm, band width=3 nm ex/3 nm em, wavelength increment=0.5 nm, integration time=2 s. • 7) Repeat the same titration series: • in the absence of KSP (to determine compound-related background), and in the absence of KSP, but in the presence of 1 μM L-tryptophan (to determine compound-related effects on the amino acid itself). Calculations
# At the peak emission wavelength for W127 in KSP(367H) (=344 nm) measure the compound emission in kinesin buffer as a function of [compound]; measure fluorescence of L-tryptophan as a function of [compound]; measure fluorescence of KSP(367H) as a function of [compound]; correct KSP(367H) fluorescence for its decrease over time (due to losses of protein to the cuvette); subtract compound emission from L-tryptophan emission; subtract compound emission from KSP(367H) emission. […]
# [1] = in the absence of the nucleotide
# [2] = in the presence of ADP or AMPPNP
SMILES,fluorescence of Trp127 [1],fluorescence of Trp127 [2]
"CCC(c1nc2sccc2c(=O)n1Cc1ccccc1)N(CCN(C)C)Cc1ccc(Br)cc1 (stereo not drawn) [Compound 8-1, 3-benzyl-2-(1-{(4-bromobenzyl)[2-(dimethylamino)ethyl]amino}propyl)thieno[2,3-d]pyrimidin-4(3H)-one]",does not cause a decrease,dose dependent decrease
"CCOC(=O)C1=C(C)NC(=S)NC1c1cccc(O)c1 (single isomer, unassigned; (+)) [Compound 5-2b, (+)-4-(3-Hydroxyphenyl)-6-methyl-2-thioxo-1,2,3,4-tetrahydro-4H-pyrimidin-5-carboxylic acid ethyl ester, reference compound]",does not cause a decrease,dose dependent decrease
"CC(=O)N1N=C(c2ccccc2Cl)CC1c1cccc(O)c1 (stereo not drawn) [Compound 1-7, 3-[1-acetyl-3-(2-chlorophenyl)-4,5-dihydro-1H-pyrazol-5-yl]phenol]",does not cause a decrease,dose dependent decrease
